What was measured:
Rattus norvegicus [1] = test: Total electrolytic excretion of sodium in urine of rats after peroral administration of 83.8 uM/Kg of drug; format: ADME, organism-based; details: in vivo, po
Rattus norvegicus [2] = test: Ratio of Total electrolytic excretion of sodium and potassium in urine of rats after peroral administration of 279 uM/Kg of drug; format: ADME, organism-based; details: in vivo, po
Rattus norvegicus [3] = test: Total electrolytic excretion of chlorine in urine of rats after peroral administration of 83.8 uM/Kg of drug; format: ADME, organism-based; details: in vivo, po
Rattus norvegicus [4] = test: Total electrolytic excretion of potassium in urine of rats after peroral administration of 279 uM/Kg of drug; format: ADME, organism-based; details: in vivo, po
Rattus norvegicus [5] = test: Total electrolytic excretion of sodium in urine of rats after peroral administration of 279 uM/Kg of drug; format: ADME, organism-based; details: in vivo, po
Rattus norvegicus [6] = test: Tested for the diuretic activity by measuring the urinary volume after peroral administering 27.9 uM/Kg of drug in rats; format: ADME, organism-based, Urine; details: in vivo, po
Rattus norvegicus [7] = test: Tested for the diuretic activity by measuring the urinary volume after peroral administering 83.8 uM/Kg of drug in rats; format: ADME, organism-based, Urine; details: in vivo, po
Rattus norvegicus [8] = test: Total electrolytic excretion of potassium in urine of rats after peroral administration of 27.9 uM/Kg of drug; format: ADME, organism-based; details: in vivo, po
Rattus norvegicus [9] = test: Total electrolytic excretion of potassium in urine of rats after peroral administration of 83.8 uM/Kg of drug; format: ADME, organism-based; details: in vivo, po
Rattus norvegicus [10] = test: Total electrolytic excretion of sodium in urine of rats after peroral administration of 27.9 uM/Kg of drug; format: ADME, organism-based; details: in vivo, po
Rattus norvegicus [11] = test: Total electrolytic excretion of chlorine in urine of rats after peroral administration of 27.9 uM/Kg of drug; format: ADME, organism-based; details: in vivo, po
Rattus norvegicus [12] = test: Ratio of Total electrolytic excretion of sodium and potassium in urine of rats after peroral administration of 83.8 uM/Kg of drug; format: ADME, organism-based; details: in vivo, po
Rattus norvegicus [13] = test: Tested for the diuretic activity by measuring the urinary volume after peroral administering 279 uM/Kg of drug in rats; format: ADME, organism-based, Urine; details: in vivo, po
Rattus norvegicus [14] = test: Total electrolytic excretion of chlorine in urine of rats after peroral administration of 279 uM/Kg of drug; format: ADME, organism-based; details: in vivo, po
Rattus norvegicus [15] = test: Ratio of Total electrolytic excretion of sodium and potassium in urine of rats after peroral administration of 27.9 uM/Kg of drug; format: ADME, organism-based; details: in vivo, po
Rattus norvegicus [16] = test: Total electrolytic excretion of sodium in urine of rats after peroral administration of 71.6 uM/Kg of drug; format: ADME, organism-based; details: in vivo, po
Canis familiaris [17] = test: Total electrolytic excretion of sodium in urine of dogs after intravenous administration of 11.9 uM/Kg of drug; format: ADME, organism-based, Canis lupus familiaris; details: dog, in vivo
Rattus norvegicus [18] = test: Total electrolytic excretion of chlorine in urine of rats after peroral administration of 239 uM/Kg of drug; format: ADME, organism-based; details: in vivo, po
Rattus norvegicus [19] = test: Total electrolytic excretion of chlorine in urine of rats after peroral administration of 23.9 uM/Kg of drug; format: ADME, organism-based; details: in vivo, po
Rattus norvegicus [20] = test: Ratio of Total electrolytic excretion of sodium and potassium in urine of rats after peroral administration of 23.9 uM/Kg of drug; format: ADME, organism-based; details: in vivo, po
Canis familiaris [21] = test: Total electrolytic excretion of potassium in urine of dogs after intravenous administration of 11.9 uM/Kg of drug; format: ADME, organism-based, Canis lupus familiaris; details: dog, in vivo
Rattus norvegicus [22] = test: Ratio of Total electrolytic excretion of sodium and potassium in urine of rats after peroral administration of 239 uM/Kg of drug; format: ADME, organism-based; details: in vivo, po
Canis familiaris [23] = test: Total electrolytic excretion of chlorine in urine of dogs after intravenous administration of 11.9 uM/Kg of drug; format: ADME, organism-based, Canis lupus familiaris; details: dog, in vivo
Rattus norvegicus [24] = test: Tested for the diuretic activity by measuring the urinary volume after peroral administering 239 uM/Kg of drug in rats; format: ADME, organism-based, Urine; details: in vivo, po
Rattus norvegicus [25] = test: Total electrolytic excretion of potassium in urine of rats after peroral administration of 71.6 uM/Kg of drug; format: ADME, organism-based; details: in vivo, po
Rattus norvegicus [26] = test: Ratio of Total electrolytic excretion of sodium and potassium in urine of rats after peroral administration of 71.6 uM/Kg of drug; format: ADME, organism-based; details: in vivo, po
Rattus norvegicus [27] = test: Total electrolytic excretion of potassium in urine of rats after peroral administration of 23.9 uM/Kg of drug; format: ADME, organism-based; details: in vivo, po
Canis familiaris [28] = test: Tested for the diuretic activity by measuring the urinary volume after intravenous administering 11.9 uM/Kg of drug in dogs; format: ADME, organism-based, Canis lupus familiaris, Urine; details: dog, in vivo
Rattus norvegicus [29] = test: Total electrolytic excretion of potassium in urine of rats after peroral administration of 239 uM/Kg of drug; format: ADME, organism-based; details: in vivo, po
Rattus norvegicus [30] = test: Tested for the diuretic activity by measuring the urinary volume after peroral administering 23.9 uM/Kg of drug in rats; format: ADME, organism-based, Urine; details: in vivo, po
Rattus norvegicus [31] = test: Tested for the diuretic activity by measuring the urinary volume after peroral administering 71.6 uM/Kg of drug in rats; format: ADME, organism-based, Urine; details: in vivo, po
Rattus norvegicus [32] = test: Total electrolytic excretion of chlorine in urine of rats after peroral administration of 71.6 uM/Kg of drug; format: ADME, organism-based; details: in vivo, po
Rattus norvegicus [33] = test: Total electrolytic excretion of sodium in urine of rats after peroral administration of 23.9 uM/Kg of drug; format: ADME, organism-based; details: in vivo, po
Rattus norvegicus [34] = test: Ratio of Total electrolytic excretion of sodium and potassium in urine of rats after intravenous administration of 11.9 uM/Kg of drug; format: ADME, organism-based; details: in vivo
Rattus norvegicus [35] = test: Total electrolytic excretion of sodium in urine of rats after peroral administration of 239 uM/Kg of drug; format: ADME, organism-based; details: in vivo, po
Rattus norvegicus [36] = test: Tested for the diuretic activity by measuring the urinary volume after peroral administering 0 uM/Kg of drug in rats; format: ADME, organism-based, Urine; details: in vivo, po
Rattus norvegicus [37] = test: Total electrolytic excretion of sodium in urine of rats after peroral administration of 0 uM/Kg of drug; format: ADME, organism-based; details: in vivo, po
Rattus norvegicus [38] = test: Total electrolytic excretion of potassium in urine of rats after peroral administration of 0 uM/Kg of drug; format: ADME, organism-based; details: in vivo, po

**Q.** For `C1CCCC(/N=C(/NC2CCCCCC2)N2CCOCC2)CC1`, which “Excretion Na+” value (Rattus norvegicus [1]) is on record?
**A.** Its value is 1.53 m equiv.

**Q.** What about the Ratio (Rattus norvegicus [2]) of the same compound?
**A.** Its Ratio is 5.6.

**Q.** And the “Excretion Cl-” value (Rattus norvegicus [3])?
**A.** Its value is 1.63 m equiv.

**Q.** And the “Excretion K+” value (Rattus norvegicus [4])?
**A.** The value was 0.28 m equiv.

**Q.** And the “Excretion Na+” value (Rattus norvegicus [5])?
**A.** Its value is 1.54 m equiv.

**Q.** And the V (Rattus norvegicus [6])?
**A.** The V was 8.4 mL.

**Q.** What about the V (Rattus norvegicus [7]) of the same compound?
**A.** Its V is 9.7 mL.

**Q.** And the “Excretion K+” value (Rattus norvegicus [8])?
**A.** Its value is 0.32 m equiv.

**Q.** And the “Excretion K+” value (Rattus norvegicus [9])?
**A.** The value was 0.31 m equiv.

**Q.** What about the “Excretion Na+” value (Rattus norvegicus [10]) of the same compound?
**A.** Its value is 1.21 m equiv.

**Q.** And the “Excretion Cl-” value (Rattus norvegicus [11])?
**A.** The value was 1.37 m equiv.

**Q.** And the Ratio (Rattus norvegicus [12])?
**A.** The Ratio was 5.

**Q.** What about the V (Rattus norvegicus [13]) of the same compound?
**A.** Its V is 9.1 mL.

**Q.** And the “Excretion Cl-” value (Rattus norvegicus [14])?
**A.** The value was 1.66 m equiv.

**Q.** And the Ratio (Rattus norvegicus [15])?
**A.** Its Ratio is 3.8.

**Q.** With `Clc1ccc(N/C(=N/C2CCCCC2)N2CCOCC2)cc1Cl` as the compound, how does the “Excretion Na+” value (Rattus norvegicus [16]) read?
**A.** Its value is 1.41 m equiv.

**Q.** What about the “Excretion Na+” value (Canis familiaris [17]) of the same compound?
**A.** Its value is 8.5 m equiv.

**Q.** And the “Excretion Cl-” value (Rattus norvegicus [18])?
**A.** The value was 1.69 m equiv.

**Q.** What about the “Excretion Cl-” value (Rattus norvegicus [19]) of the same compound?
**A.** The value was 1.17 m equiv.

**Q.** And the Ratio (Rattus norvegicus [20])?
**A.** The Ratio was 4.1 [Na+]/[K+].

**Q.** And the “Excretion K+” value (Canis familiaris [21])?
**A.** Its value is 1.1 m equiv.

**Q.** And the Ratio (Rattus norvegicus [22])?
**A.** The Ratio was 5.8 [Na+]/[K+].

**Q.** And the “Excretion Cl-” value (Canis familiaris [23])?
**A.** The value was 5.7 m equiv.

**Q.** What about the V (Rattus norvegicus [24]) of the same compound?
**A.** Its V is 13.2 mL.

**Q.** What about the “Excretion K+” value (Rattus norvegicus [25]) of the same compound?
**A.** Its value is 0.32 m equiv.

**Q.** What about the Ratio (Rattus norvegicus [26]) of the same compound?
**A.** Its Ratio is 4.4 [Na+]/[K+].

**Q.** And the “Excretion K+” value (Rattus norvegicus [27])?
**A.** Its value is 0.27 m equiv.

**Q.** And the V (Canis familiaris [28])?
**A.** Its V is 57 mL.

**Q.** What about the “Excretion K+” value (Rattus norvegicus [29]) of the same compound?
**A.** Its value is 0.33 m equiv.

**Q.** And the V (Rattus norvegicus [30])?
**A.** Its V is 7.4 mL.

**Q.** And the V (Rattus norvegicus [31])?
**A.** Its V is 10.6 mL.

**Q.** And the “Excretion Cl-” value (Rattus norvegicus [32])?
**A.** Its value is 1.45 m equiv.

**Q.** What about the “Excretion Na+” value (Rattus norvegicus [33]) of the same compound?
**A.** The value was 1.1 m equiv.

**Q.** What about the Ratio (Rattus norvegicus [34]) of the same compound?
**A.** Its Ratio is 7.4 [Na+]/[K+].

**Q.** And the “Excretion Na+” value (Rattus norvegicus [35])?
**A.** Its value is 1.92 m equiv.

**Q.** What does the source list for `NS(=O)(=O)c1cc(C(=O)O)c(NCc2ccco2)cc1Cl` [FUROSEMIDE]?
**A.** V (Rattus norvegicus [36]): 4.4 mL; Excretion Na+ (Rattus norvegicus [37]): 0.65 m equiv; Excretion K+ (Rattus norvegicus [38]): 0.24 m equiv
